This is an account of results in ChEMBL document CHEMBL1201862, “PubChem BioAssay data set” (2004).

The source made the active and inactive calls. No stated cut-off is given here; in the data, actives have a measured EC50 and inactives only a lower limit.

In this experiment the target is T1, Serine/threonine-protein phosphatase (Candida dubliniensis (strain CD36 / CBS 7987 / NCPF 3949 / NRRLY-17841) (Yeast), UniProt B9W6M3).
T1 sequence (B9W6M3 whole entry): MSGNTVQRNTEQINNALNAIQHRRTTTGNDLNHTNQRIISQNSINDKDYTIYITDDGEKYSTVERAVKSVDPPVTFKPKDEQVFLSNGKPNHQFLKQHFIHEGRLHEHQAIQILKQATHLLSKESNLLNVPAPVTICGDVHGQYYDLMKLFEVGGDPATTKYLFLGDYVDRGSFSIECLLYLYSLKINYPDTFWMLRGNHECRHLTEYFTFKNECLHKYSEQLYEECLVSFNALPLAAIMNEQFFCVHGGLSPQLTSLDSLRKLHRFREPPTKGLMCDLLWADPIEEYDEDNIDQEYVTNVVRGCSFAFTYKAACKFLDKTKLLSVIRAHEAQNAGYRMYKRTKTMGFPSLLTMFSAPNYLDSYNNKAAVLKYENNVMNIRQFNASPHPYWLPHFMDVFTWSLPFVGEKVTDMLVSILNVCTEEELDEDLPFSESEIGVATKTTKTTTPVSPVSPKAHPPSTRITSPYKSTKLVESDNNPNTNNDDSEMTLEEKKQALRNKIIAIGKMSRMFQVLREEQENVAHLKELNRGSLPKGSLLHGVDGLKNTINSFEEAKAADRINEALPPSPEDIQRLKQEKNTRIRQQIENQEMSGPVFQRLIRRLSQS
The experiment can be described thus: calcineurin pathway inhibitors in yeast reporter, dose response, S. cerevisiae, CDRE-lacZ, luminescence, secondary (AID 2388).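 Further: yeast reporter cells carrying a calcineurin-responsive lacZ construct stimulated with calcium chloride; luminescent beta-galactosidase reporter signal in whole cells rather than isolated phosphatase activity; potency for inhibition where a drop in reporter signal means calcineurin blockade.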 In kind it is functional, cell-based.

`CCCCC(=O)NC(c1ccccc1)c1ccc2cccnc2c1O` (stereo unspecified): the EC50 (commonly the midpoint of the concentration-response curve) is > 180 µM (inactive).
